The test addresses T1, hURAT1 (Homo sapiens, UniProt Q96S37).
T1 sequence (Q96S37 1-553): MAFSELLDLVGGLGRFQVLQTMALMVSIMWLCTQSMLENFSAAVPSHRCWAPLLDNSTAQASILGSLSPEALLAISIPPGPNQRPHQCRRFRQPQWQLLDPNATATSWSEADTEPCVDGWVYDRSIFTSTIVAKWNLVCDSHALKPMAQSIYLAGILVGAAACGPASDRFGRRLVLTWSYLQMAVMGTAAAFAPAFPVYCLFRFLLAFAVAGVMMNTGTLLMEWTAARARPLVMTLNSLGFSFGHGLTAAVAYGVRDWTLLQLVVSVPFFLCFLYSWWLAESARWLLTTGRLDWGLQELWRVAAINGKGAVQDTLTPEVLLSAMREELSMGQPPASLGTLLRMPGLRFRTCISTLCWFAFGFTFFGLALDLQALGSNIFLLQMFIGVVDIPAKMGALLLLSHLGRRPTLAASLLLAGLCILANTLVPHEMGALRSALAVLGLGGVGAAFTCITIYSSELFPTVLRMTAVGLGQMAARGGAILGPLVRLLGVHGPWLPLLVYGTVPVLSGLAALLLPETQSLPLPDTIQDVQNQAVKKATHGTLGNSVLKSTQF
As to the kind of experiment: Inhibition assay of uric acid transport in HEK293-hURAT1 transfection cell line (14C-uric acid uptake). It counts as cell-based. The settings on record: for inhibition at 0.5 µM: compound concentration 500 nM, HEK293-hURAT1 stable cells, 14C-uric acid, mean of three tests ±SD, read-out: Inhibition rate of uric acid transport, ±SD (%); for inhibitory effects of uric acid transport in HEK293-hURAT1 transfection cell line, in words: in comparison with control drug Zurampic at 500 nM. Here is the method: Inhibition Assay of Uric Acid Transport for Compounds in HEK293-hURAT1 Transfection Cell Line
1. Construction of a HEK293 stable cell line with high expression of hURAT1:
The plasmid pCMV6-hURAT1 was transfected into HEK293 cells, then the stable strain was obtained by the G418 (final concentration of 500 μg/mL) resistance screening, which is the high expression of hURAT1 transporter membrane protein. It can be used for in vitro inhibition assay of uric acid transporter hURAT1 (Weaver Y M, Ehresman D J, Butenhoff J L, et al. Roles of rat renal organic anion transporters in transporting perfluorinated carboxylates with different chain lengths. Toxicological Sciences, 2009, 113(2):305-314).
2. Coating 24-well plate: to a coated 24-well plate was added 200 μl of 0.1 mg/mL poly-lysine per well and the plate was left overnight. Poly-lysine was removed from wells. The wells were cleaned thoroughly with steriled water and dried for use.
3. To the above coated 24-well plate was added HEK293-hURAT1 stable cells (2×10^5 cells per well). The cells were cultured at 37° C. under 5% CO2 for 3 days.
4. Preparation of HBSS buffer: the following reagents were weighed according to the final concentration of 125 mM sodium gluconate, 4.8 mM potassium gluconate, 1.3 mM calcium gluconate, 1.2 mM KH2PO4, 1.2 mM MgSO4, 5.6 mM glucose and 25 mM HEPES. Deionized water was added to reach the corresponding volume, and the solution was fully mixed to give HBSS (pH value: 7.4). The buffer was stored at −20° C. in a refrigerator.
5. At the day of experiment, the HBSS buffer was taken out of the refrigerator and warmed to 37° C. in a water bath. Taken out the 24-well plate with HEK293-hURAT1 stable cells, removed the culture medium and washed cells with HBSS, then add 160 μL of HBSS and 20 μL test compound per well. The final concentration of tested compound per well is 500 nM. The blank control well contains only 180 μL of HBSS without tested compound. The plate was placed at room temperature for 10 minutes.
6. To each well was added 20 μL of 50 μM ^14C-uric acid. The 24-well plate was placed at room temperature for 20 minutes.
7. The solution in each well was removed and the cells in each well were washed with the pre-cooled HBSS buffer. To each well was added 0.2 M NaOH to dissolve the cells. The solution containing cell fragments was collected and the appropriate amount of scintillation liquid was added. The radioisotope intensity of the ^14C-Uric acid (CPM value) was then detected by using PerkinElmer MicroBeta Trilux 1450 liquid scintillation analyzer.
8. In HEK293 transfected cell lines, the formula for calculating the inhabitation rate of uric acid transport for compounds was shown as below (Table 1), the CPM value of the tested compounds was represented by CPM(tested compound) and the CPM value of the blank control was represented by CPM(blank control). All tests were repeated three times, and the results were averaged and the standard deviation (SD) was calculated: Inhibition rate(%)(500 nM compound concentration)=(CPM(blank control)−CPM(test compound))/CPM(blank control)×100%

Usually inhibition stands for the share of the control response that was lost under treatment.

In the case of `CCc1nc2n(c1C(=O)c1cc(Br)c(O)c(Br)c1)CCCC2` [Compound 5, (3,5-dibromo-4-hydroxyphenyl)(2-ethyl-5,6,7,8-tetrahydroimidazo[1,2-a]pyridine-3-yl)methanone], the inhibition at 0.5 µM came to 53.4 ± 4.54% and the “inhibitory effects of uric acid transport in HEK293-hURAT1 transfection cell line, in words” value (“inhibitory effects” below) is recorded as “very good inhibitory effects”.
On the same counts, the results for `[2H]C1c2nc(CC)c(C(=O)c3cc(Br)c(O)c(Br)c3)n2C([2H])C([2H])([2H])C1[2H]` (stereo not shown) [Compound 10, (3,5-dibromo-4-hydroxyphenyl)(5,6,6,7,8-pentadeuterio-2-ethyl-5,6,7,8-tetrahydroimidazo[1,2-a]pyridin-3-yl)methanone] are 47.5 ± 3.12% and “very good inhibitory effects”.
The corresponding values for `CCc1nc2n(c1C(=O)c1cc(Br)c(O)c(C#N)c1)CCCC2` [Compound 17, 3-bromo-5-(2-ethyl-5,6,7,8-tetrahydroimidazo[1,2-a]pyridine-3-carbonyl)-2-hydroxybenzonitrile] are 47.46 ± 0.14% and “very good inhibitory effects”.
As for `CCc1nc2n(c1C(=O)c1cc(Br)c(O)c(Br)c1)CCC(O)C2` (stereo not shown) [Compound 23, (3,5-dibromo-4-hydroxyphenyl)(2-ethyl-7-hydroxy-5,6,7,8-tetrahydroimidazo[1,2-a]pyridine-3-yl)methanone], the inhibition at 0.5 µM was 47.5 ± 1.65% and the “inhibitory effects” value is “very good inhibitory effects”.
The corresponding values for `CCc1nc2n(c1C(=O)c1cc(Br)c(O)c(Br)c1)CCC(OC)C2` (stereo not shown) [Compound 25, (3,5-dibromo-4-hydroxyphenyl)-(2-ethyl-7-methoxy-5,6,7,8-tetrahydroimidazo[1,2-a]pyridin-3-yl)methanone] are 47.6 ± 4.12% and “very good inhibitory effects”.
Turning to `CCc1nn2c(c1C(=O)c1cc(Br)c(O)c(Br)c1)CCCC2` [Compound 32], the inhibition at 0.5 µM stood at 43.4 ± 2.4%.
For the compound `CCn1nc2c(c1C(=O)c1cc(Br)c(O)c(Br)c1)CCCC2` [Compound 41, (3,5-dibromo-4-hydroxyphenyl)(2-ethyl-4,5,6,7-tetrahydro-2H-indazol-3-yl)methanone], the inhibition at 0.5 µM amounted to 46.2 ± 6.18% and the “inhibitory effects” value is “very good inhibitory effects”.
The corresponding values for `CCc1nc2n(c1C(O)c1cc(Br)c(O)c(Br)c1)CCCC2` (stereo not shown) [Compound 42, 2,6-dibromo-4-[(2-ethyl-5,6,7,8-tetrahydroimidazo[1,2-a]-pyridin-3-yl)hydroxymethyl]phenol] are 47.6 ± 3.08% and “very good inhibitory effects”.
As to `CCc1nc2n(c1C(=O)c1cc(Br)c(O)c(Br)c1)CC(C)CC2` (stereo not shown) [Compound 43, (3,5-dibromo-4-hydroxyphenyl)(2-ethyl-6-methyl-5,6,7,8-tetrahydroimidazo[1,2-a]pyridin-3-yl)methanone], the inhibition at 0.5 µM turned out to be 53.2 ± 9.36% and the “inhibitory effects” value is listed as “very good inhibitory effects”.
The corresponding values for `CCc1nc2n(c1C(=O)c1cc(C)c(O)c(Br)c1)CCCC2` [Compound 48, (3-bromo-4-hydroxy-5-methylphenyl)(2-ethyl-5,6,7,8-tetrahydroimidazo[1,2-a]pyridin-3-yl)methanone] are 46.1 ± 4.91% and “very good inhibitory effects”.
For `CCn1nc2c(c1C(=O)c1cc(Br)c(O)c(Br)c1)COCC2` [Compound 58], the inhibition at 0.5 µM was 38.6 ± 6.3%.
In the case of `CCc1nc2n(c1C(O)c1cc(Br)c(O)c(C#N)c1)CCCC2` (stereo not shown) [Compound 63, 3-bromo-5-((2-ethyl-5,6,7,8-tetrahydroimidazo[1,2-a]pyridin-3-yl)hydroxymethyl)-2-hydroxyl benzonitrile], the inhibition at 0.5 µM was found to be 42.3 ± 2.6%.
On the same count and under the same terms, in the case of `O=C(O)CSc1nnc(Br)n1-c1ccc(C2CC2)c2ccccc12` [Zurampic, Lesinurad, reference compound] it was 27.6 ± 2.89%.
